# From patent US20130029981A1, “COMPOUNDS, COMPOSITIONS, AND METHODS FOR CONTROLLING BIOFILMS” (Katholieke Universiteit Leuven, priority 2009, published 2013)
# Where two headings read alike, the source gives them in different places.
# What was measured:
# [1] = tested on: Salmonella Typhimurium ATCC 14028; test: Antibacterial activity: growth inhibition, OD600 after 24 h (GIC50); format: cell-based
# Protocol: Evaluation of antibacterial-inhibitory activity of some substituted 2-amino-1H-imidazoles of the invention was carried out by diluting an overnight culture of Salmonella Typhimurium ATCC 14028 into a liquid medium. 200 μl of the diluted overnight culture was added to each well of a microtiter plate together with different concentrations of the test compound (1/2 dilution series of the compound). After an incubation of 24 hours the optical density at 600 nm of each well was determined with a microtiter plate reader.
# Starting from a 40 mM stock solution of each compound in DMSO, two-fold serial dilutions in 100 μl liquid broth per well were prepared in dublicate in sterile transparant microtiter plates. The broth used was TSB 1/20 for measurements at 25° C. and CFA (in case of Salmonella Typhimurium) and LBNS (in case of Pseudomonas aeruginosa) for measurements at 37° C. Subsequently an overnight culture of the bacteria (S. Typhimurium ATCC14028 or P. aeruginosa PA14) was diluted 1/200 into the corresponding liquid broth and 100 μl was added to each well of the microtiterplate resulting in a total amout of 200 μl medium per well. After an incubation of 24 hours the optical density at 600 nm of each well was determined with a microtiter plate reader (VERSAmax, Molecular Devices).
# Evaluation of antibacterial-inhibitory activity of some substituted imidazo[1,2-a]pyrimidinium bromide salts of the invention was carried out by diluting an overnight culture of Salmonella Typhimurium ATCC14028 or Pseudomonas aeruginosa PA141/200 into liquid medium. 200 μl of the diluted overnight culture was added to each well of a microtiterplate together with different concentrations of the test compound (1/2 dilution series of the compound). After an incubation of 24 hours the optical density at 600 nm of each well was determined with a microtiter plate reader.
# S. Typhimurium ATCC14028 = test: Static peg assay for prevention of biofilm formation (Calgary device, crystal violet); format: cell-based, Salmonella Typhimurium
# In short: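 Calgary 96-peg device, ca. 10^6 cells of ATCC14028 per well in TSB 1/20 for 24 h at 25° C (or 48 h at 16° C, medium and compound renewed at 24 h), or in CFA broth for 24 h at 37° C, static, with two-fold compound dilutions. Crystal violet stain, acetic acid extraction, OD570. IC50 from 2–3 independent experiments.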
# [2] = tested on: Pseudomonas aeruginosa PA14; test: as above; format: cell-based
# Protocol: (§1) Evaluation of the biofilm inhibitory activity of some substituted 2-amino-1H-imidazoles of the invention was carried out by growing up biofilms of S. Typhimurium ATCC14028 or SL1344 or Pseudomonas aeruginosa PA14 in the presence of different concentrations (1/2 dilution series) of biofilm inhibitors, by using the Calgary biofilm device. After an incubation period of 24 hours at 25° C. or 37° C. or 48 hours at 16° C. the biofilms were visualized by crystal violet staining. In the next step the stain was extracted from the biofilm with 30% acetic acid. The absorbance of the resolubilized stain at 570 nm is a measure of the amount of biofilm formed.
# The device used for Pseudomonas aeruginosa biofilm formation is the same platform carrying polystyrene pegs as described above for Salmonella Typhimurium.
# Two-fold serial dilutions of the compounds in 100 μl liquid broth per well were prepared in the microtiter plate. Subsequently, an overnight culture of P. aeruginosa PA14 (grown up in TSB medium) was diluted 1:100 into liquid broth and 100 μl was added to each well of the microtiter plates, resulting in a total amount of 200 μl medium per well. The pegged lid was placed on the microtiter plate and the plate was incubated for 24 hours at 25° C., 30° C. or 37° C. without shaking. During this incubation period biofilms were formed on the surface of the pegs. The liquid broth used for the tests at 25° C. was TSB 1/20. The tests at 37° C. were performed in CFA and/or LBNS broth. During incubation at 30° C. and 37° C. the plates were placed in a humidity controlled container to prevent evaporation of the growth medium. Quantification of biofilm formation was performed similarly as described previously for the S. Typhimurium biofilm assays.
# as §1, with “imidazo[1,2-a]pyrimidinium bromide salts” for “2-amino-1H-imidazoles”
# as §1, with “substituted imidazo[1,2-a]-pyrimidinium bromide and perchlorate salts produced according to examples 3 and 5” for “substituted 2-amino-1H-imidazoles of the invention”, “C.” for “C. or 37° C. or 48 hours at 16° C.”, “nm was taken as” for “nm is”
# [3] = OD600 after 24 hours of growth, read-out: GIC(50)
# [4] = 25° C., Table 16, read-out: P. aeruginosa IC50 (biofilm formation)
# [5] = 25° C., 24 hours, Table 15, read-out: (1) IC50 (biofilm inhibition)
# [6] = 25° C., Table 16, read-out: S. Typhimurium IC50 (biofilm formation)
# [7] = 25° C., 24 hours, Table 15, read-out: (2) IC50 (biofilm inhibition)
Compound,"IC50 [2, 4]",IC50 (S. Typhimurium ATCC14028; [5]),IC50 (S. Typhimurium ATCC14028; [6]),"IC50 [2, 7]",also measured
"Brc1ccc(-c2c[nH]c(NC3CCCC3)n2)cc1 [R1=H, R2=cyclopentyl, R3=H, R4=p-Br—Ph]",–,–,–,–,"IC50 [1, 3]: 50 to 100 µM"
OC1(c2ccc3c(c2)OCO3)C[n+]2cccnc2N1Cc1ccc2c(c1)OCO2 (centres unmarked) [Compound 80],–,–,–,–,"IC50 ([1]; 25° C.): 100 to 200 µM; IC50 (S. Typhimurium ATCC14028; 25° C., Table 11, read-out: IC50 (biofilm formation)): 102 µM; IC50 (S. Typhimurium ATCC14028; 25° C., Table 14, read-out: IC50 biofilm inhibition): 102 µM; IC50 (S. Typhimurium ATCC14028; 25° C., Table 19, read-out: IC50 (biofilm formation)): 53.7 µM"
"COc1ccc(C2(O)C[n+]3cccnc3N2C2CCCCC2)cc1 (centres unmarked) [R1=Cyclohexyl, R3=4-MeO—Ph, R4=H, 1-cyclohexyl-2-hydroxy-2-(4-methoxyphenyl)-2,3-dihydro-1H-imidazo[1,2-a]pyrimidin-4-ium bromide]",–,–,–,–,"IC50 ([1]; Salmonella enterica, 25° C.): 50 to 100 µM; IC50 (S. Typhimurium ATCC14028; Salmonella enterica, 25° C., Table 11, read-out: IC50 (biofilm formation)): 112 µM; IC50 (S. Typhimurium ATCC14028; Salmonella enterica, 25° C., Table 14, read-out: IC50 biofilm inhibition): 112 µM"
Clc1ccc(-c2cnc(NC3CCCCC3)[nH]2)cc1 [Compound 122],–,–,–,–,"IC50 ([2]; Table 21, P. aeruginosa PA14, 25° C., read-out: P. aeruginosa IC50 (biofilm formation)): ~25 µM; IC50 (S. Typhimurium ATCC14028; Table 21, S. Typhimurium ATCC14028, 25° C., read-out: S. Typhimurium IC50 (biofilm formation)): > 800 µM"
CCCCCCCCCCCCCCN1c2nccc[n+]2CC1(O)c1ccccc1 (racemic) [Compound 14],> 800 µM,180 µM,180 µM,–,–
CCCCCCN1c2nccc[n+]2CC1(O)c1ccc(Cl)cc1 (racemic) [Compound 19],79.8 µM,13.7 µM,13.7 µM,20.2 µM,–
OC1(c2ccccc2)C[n+]2cccnc2N1C1CCCCCC1 (centres unmarked) [Compound 59],–,84.2 µM,–,5.81 µM,"IC50 ([2]; 25° C., Table 18, read-out: P. aeruginosa IC50 (biofilm formation)): 250 µM; IC50 (S. Typhimurium ATCC14028; 25° C., Table 18, read-out: S. Typhimurium IC50 (biofilm formation)): 84.2 µM"
CCCCCCCCN1c2nccc[n+]2CC1(O)c1ccc(SC)cc1 (centres unmarked) [Compound 51],–,~13.2 µM,–,29 µM,"IC50 ([2]; 25° C., Table 17, read-out: P. aeruginosa IC50 (biofilm formation)): 36.5 µM; IC50 (S. Typhimurium ATCC14028; 25° C., Table 17, read-out: S. Typhimurium IC50 (biofilm formation)): ~13.2 µM"
CN1c2nccc[n+]2CC1(O)c1ccccc1 (racemic) [Compound 1],212 µM,–,> 800 µM,–,–
CC(C)N1c2nccc[n+]2CC1(O)c1ccccc1 (racemic) [Compound 2],> 400 µM,–,540 µM,–,–
CCCCCCCCCCN1c2nccc[n+]2CC1(O)c1ccccc1 (racemic) [Compound 10],47 µM,15 µM,15 µM,3.95 µM,–
"Clc1ccc(-c2c[nH]c(NC3CCCC3)n2)cc1 [R1=H, R2=cyclopentyl, R3=H, R4=p-Cl—Ph]",–,–,–,–,"IC50 [1, 3]: 45 µM; IC50 (S. Typhimurium ATCC14028; S. Typhimurium ATCC 14028, 25° C., read-out: IC50 for biofilm inhibition (25° C.)): 4 µM"
CCCCCCCCCCCN1c2nccc[n+]2CC1(O)c1ccccc1 (racemic) [Compound 11],> 800 µM,24.6 µM,24.6 µM,28.6 µM,–
CCCCCN1c2nccc[n+]2CC1(O)c1ccccc1 (racemic) [Compound 5],565 µM,–,278 µM,–,–
CCCCCCCCCCCN1c2nccc[n+]2CC1(O)c1ccc(Cl)cc1 (racemic) [Compound 24],> 800 µM,61.9 µM,61.9 µM,205 µM,–
CNc1nc(-c2ccc([N+](=O)[O-])cc2)c[nH]1 [Compound 91],–,–,–,–,"IC50 ([2]; P. aeruginosa PA14, 25° C., read-out: P. aeruginosa IC50 (biofilm formation)): 56.1 µM; IC50 (S. Typhimurium ATCC14028; S. Typhimurium ATCC 14028, 25° C., read-out: S. Typhimurium IC50 (biofilm formation)): 170 µM"
